{"source": "patent EP2335686A1", "about": "“An aqueous intravenous nanosuspension with reduced adverse effects” (LEK Pharmaceuticals d.d., priority 2009, dated 2011)", "origin": "cited, not measured here"}
{"molecule": "CC(C)c1cccc(C(C)C)c1O", "note": "[propofol]", "values": [{"measurement": "aqueous solubility at room temperature", "result": 0.0164, "unit": "µg/mL"}]}
